Converted amounts (≈) assume the structure as drawn.

From ChEMBL document CHEMBL1150953, “Novel betaines from the marine sponge Agelas dispar” (1998) come the findings set out here.

In one experiment the test system is Bacillus subtilis. Put plainly: Antibacterial activity against Bacillus subtilis ATCC 6633 after 16 hrs. The experiment is classed as functional. The following applies: ATCC 6633, 16 h.
The test system of another experiment is Staphylococcus aureus. Put plainly: Antibacterial activity against Staphylococcus aureus ATCC 6538 after 16 hrs. The settings on record: ATCC 6538, 16 h. It is filed as functional.

In the case of `Cn1c(CC(=O)[O-])c[n+](C)c1N` [AMINOZOOANEMONIN], the MIC (in general, the lowest concentration found to suppress growth) against Bacillus subtilis was found to be 2.5 µg/mL (≈ 14.8 µM); against Staphylococcus aureus, 8.5 µg/mL (≈ 50.2 µM).

`O=C([O-])c1ccc[n+](CCO)c1` [PYRIDINEBETAINE A]: the figures for the minimum inhibitory concentration (MIC) in the experiment on Bacillus subtilis and against Staphylococcus aureus were 3.5 µg/mL (≈ 20.9 µM) and 5 µg/mL (≈ 29.9 µM), respectively.
